US8148333B2, “Stable composition comprising a PTHrP analogue” (priority 2006, dated 2012)

Legend:
Bacteria; Yeast and mold = assay: Anti-microbial effectiveness test, overall result (conformity); format: cell-based; settings: for preservative effectiveness results for both Bacteria and Yeasts/moulds: immediately after manufacture
bacteria, yeast and mold = assay: Preservative effectiveness test, screening of preservatives (Table 3); format: cell-based; settings: Table 3 screening
Method: Solutions were prepared containing [Glu^22,25, Leu^23,28,31, Aib29, Lys^26,31]hPTHrP(1-34)NH2 (SEQ ID NO.: 2) 2 mg/ml, acetate buffer 6 mM and water for injection, with various different preservatives added at concentrations recommended for effective antimicrobial activity. Solutions were prepared at room temperature, by dissolution of the various ingredients in water for injection, with stirring over <30 minutes to ensure complete dissolution, Solutions were filtered through 0.2 micron filter and filled into glass vials, to which a rubber stopper was applied and crimped in place to ensure complete closure.
The solution with methylparaben was less acceptable due to precipitation and inactivity immediately after manufacture of the solution. The solutions were then stored for up to 3 months at 25° C., and up to 4.5 months at 5° C. and the preservative effectiveness test repeated. as described in Example 5.

[1] = Chemical stability of formulations: (SEQ ID NO.: 2) content (Table 6); format: physicochemical; settings: formulations of Table 6
Text: TABLE 6 details the chemical stability of the formulations described in Example 4.

## OCc1ccccc1 [Benzyl Alcohol]
Bacteria; Yeast and mold; after 3 and 4.5 months storage
  efficacy against Bacteria: not compliant
Bacteria; Yeast and mold
  preservative effectiveness results for both Bacteria and Yeasts/moulds: compliant
bacteria, yeast and mold
  suitability as preservative for use with SEQ ID NO.: 2 (precipitation and/or inactivity in preservative activity): not suitable

## COC(=O)c1ccc(O)cc1 [Methyparaben]
bacteria, yeast and mold
  suitability as preservative for use with SEQ ID NO.: 2 (precipitation and/or inactivity in preservative activity): not suitable

## Oc1ccccc1 [Phenol]
Bacteria; Yeast and mold; after 3 and 4.5 months storage
  preservative efficacy for both Bacteria and Yeasts/moulds: maintained
Bacteria; Yeast and mold
  preservative effectiveness results for both Bacteria and Yeasts/moulds: compliant

## CC[C@H](C)[C@H](NC(=O)[C@H](CO)NC(=O)[C@H](CCCCN)NC(=O)CNC(=O)[C@H](CCCCN)NC(=O)[C@H](CC(=O)O)NC(=O)[C@H](Cc1cnc[nH]1)NC(=O)[C@H](CC(C)C)NC(=O)[C@H](CC(C)C)NC(=O)[C@H](CCC(N)=O)NC(=O)[C@H](Cc1cnc[nH]1)NC(=O)[C@H](CCC(=O)O)NC(=O)[C@H](CO)NC(=O)[C@@H](NC(=O)[C@H](C)N)C(C)C)C(=O)N[C@@H](CCC(N)=O)C(=O)N[C@@H](CC(=O)O)C(=O)N[C@@H](CC(C)C)C(=O)N[C@@H](CCCNC(=N)N)C(=O)N[C@@H](CCCNC(=N)N)C(=O)N[C@@H](CCCNC(=N)N)C(=O)N[C@@H](CCC(=O)O)C(=O)N[C@@H](CC(C)C)C(=O)N[C@@H](CC(C)C)C(=O)N[C@@H](CCC(=O)O)C(=O)N[C@@H](CCCCN)C(=O)N[C@@H](CC(C)C)C(=O)N[C@@H](CC(C)C)C(=O)NC(C)(C)C(=O)N[C@@H](CCCCN)C(=O)N[C@@H](CC(C)C)C(=O)N[C@@H](Cc1cnc[nH]1)C(=O)N[C@H](C(=O)N[C@@H](C)C(N)=O)[C@@H](C)O [SEQ ID NO.: 2, [Glu^22,25, Leu^23,28,31, Aib^29, Lys^26,30]hPTHrP(1-34)NH2]
[1]
  solution stability, influence of the preservative selected: not significantly influenced
